The values below come from patent US20250195530A1, “POLQ INHIBITORS” (ASTRAZENECA AB, priority 2022, published 2025).

One test has as its system DLD-1 cells. The test is described as follows: Inhibition of proliferation, DLD-1 BRCA2 wt control (Cell Titre Glo 3D). The following applies: for IC50: Homo sapiens. In kind it is cell-based. The text has this: This assay identifies anti-proliferative effects of POLQ compounds in the homologous recombination deficient colorectal cell line DLD-1 BRCA2−/− over 8-9 population doublings (7 days for DLD-1 and 12 days for DLD-1 BRCA2−/−). DLD1 BRCA2 wt are used as a control to detect cell toxic effects not specific to homologous recombination deficiency.
DLD-1 BRCA2−/− and DLD-1 cells were kept in continuous culture in Assay Medium (RPMI 1640 phenol red free (Sigma R7509) containing 1% GlutaMAX (Gibco 35050) and 10% Foetal Bovine Serum (Gibco 10270-106)). On the day of the assay cells in culture of ˜80-90% confluent were used. Cell monolayers were washed with 10 mL PBS, then removed and added 2 mL TrypLE Express (Gibco 12604). The cells with TrypLE Express were incubated for 5 minutes in cell culture incubator and then the detached cells resuspend in 15 mL Assay Medium. Cells were counted using a ViCell and the cell images were monitored for clumps of cells, ideally they should be single or <3 cell clusters. The cells were diluted to 3,000 cells/mL of DLD-1 BRCA2−/− and 1,500 cells/mL of DLD-1 in Assay Medium and 100 μL added per well of transparent bottomed, black, tissue culture-treated 96-well plates (CoStar, No. 3904) Assay Ready Plates. The Assay Ready Plates contain a 10 point 10 μM to 0.51 nM dose range with three-fold dilutions in DMSO with a final volume of 100 nL. The plates were incubated at 37° C. with 5% C02 for 6 days. On day 6, 100 μL/well of Assay Medium was added to duplicate Assay Ready Plates. 90 μL of culture medium was removed from the cell plates and replenished with the Assay Media and compounds from the duplicate Assay Ready Plates using the Bravo. The plates were further incubated at 37° C. with 5% CO2. On day 7 the plates containing DLD-1 and Cell Titre Glo 3D (Promega G9683) were equilibrated to room temperature, then 60 μL of Cell Titre Glo 3D was added per well and incubated on a shaking platform for 30 min. Plates were read on the Envision measuring luminescence for 1 second per well. On day 12 the plates containing DLD-1 BRCA2−/− cells and Cell Titre Glo 3D (Promega G9683) were equilibrated to room temperature, then 60 μL Cell Titre Glo 3D added per well and incubated on a shaking platform for 30 min. Plates were read on the Envision measuring luminescence for 1 second per well. The data was exported into a suitable software package (such as Genedata) to perform curve fitting analysis. Inhibition of cell proliferation was expressed as an IC5o value and was determined by calculation of the concentration of compound that was required to give a 50% reduction of the average maximum Total Intensity signal.

The next test has as its system DLD-1 BRCA2−/− cells. The test can be described thus: Homologous recombination synthetic lethal inhibition of proliferation, DLD-1 BRCA2-/- (Cell Titre Glo 3D). In kind it is cell-based. Conditions: for IC50: Homo sapiens. The essentials: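 Isogenic DLD-1 pair; BRCA2−/− seeded 3,000 cells/mL and read day 12, wt seeded 1,500 cells/mL and read day 7. 10-pt titration (top 10 μM, 3-fold), re-fed with compound day 6, 37 °C/5% CO2. CTG 3D endpoint; IC50 at 50% signal loss.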

[1] abbreviates: DLD-1, 168 h, DLD-1 BRCA2 wt cells, 7 days, read-out: POLQ PD Prolif Lumin DLD1 mean pIC50 (converted).
Where [2] appears, read: DLD-1, 288 h, DLD-1 BRCA2−/− cells, 12 days, read-out: POLQ PD Prolif Lumin BRCA2 −/− mean pIC50 (converted).
Setting [3] is: DLD-1, DLD-1 BRCA2 wt control proliferation, column head only partly shown, read-out: POLQ PD Prolif Lumin (converted).
Setting [4] is: DLD-1, DLD-1 BRCA2-/- proliferation, column head only partly shown, read-out: POLQ PD Prolif Lumin (converted).
Setting [5] is: DLD-1, second proliferation column (c6), DLD-1 BRCA2 wt control, read-out: POLQ PD Prolif Lumin (converted).
Where [6] appears, read: DLD-1, first proliferation column (c5), DLD-1 BRCA2-/-, read-out: POLQ PD Prolif Lumin (converted).
[7] abbreviates: DLD-1, DLD1 BRCA2 wt, mean, read-out: POLQ PD Prolif Lumin DLD1 mean pIC50 (converted).

Structures are written as SMILES. Like-named read-outs stand apart in the source and are kept apart here.

As for `Cc1nc(Cn2c(-c3ccc(OCCN4CCN(C)CC4)cc3Cl)nc3c(OC4(C)CC4)ncnc32)cs1` [Example 7, 4-((8-(2-Chloro-4-(2-(4-methylpiperazin-1-yl)ethoxy)phenyl)-6-(1-methylcyclopropoxy)-9H-purin-9-yl)methyl)-2-methylthiazole], the IC50 in the test with DLD-1 cells (setting [1]) is more than 10000 nM; in the test with DLD-1 BRCA2−/− cells (setting [2]), 794 nM. As for `CC1(Oc2ncnc3c2nc(-c2ccc(OCCN4CC5(C4)CS(=O)(=O)C5)cc2Cl)n3Cc2ccccc2)CC1` [Example H20, 6-(2-(4-(9-benzyl-6-(1-methylcyclopropoxy)-9H-purin-8-yl)-3-chlorophenoxy)ethyl)-2-thia-6-azaspiro[3.3]heptane 2,2-dioxide], the results for the IC50 in the test on DLD-1 cells (setting [1]) and with DLD-1 BRCA2−/− cells (setting [2]) were 3980 nM and 100 nM, respectively. As for `CC(CCOc1ccc(-c2nc3c(OC4(C#N)CC4)ncnc3n2Cc2cccc(Cl)c2)c(Cl)c1)C(=O)O` (racemic) [Example T252, 4-(3-chloro-4-(9-(3-chlorobenzyl)-6-(1-cyanocyclopropoxy)-9H-purin-8-yl)phenoxy)-2-methylbutanoic acid], the IC50 with DLD-1 cells (setting [3]) was more than 10000 nM; in the test on DLD-1 BRCA2−/− cells (setting [4]), 398 nM.

For `CC1(Oc2ncnc3c2nc(-c2ccc(OCCN4CC5(CC(O)C5)C4)cc2Cl)n3Cc2cc(Cl)ccn2)CC1` [Example R1, 2-(2-(3-chloro-4-(9-((4-chloropyridin-2-yl)methyl)-6-(1-methylcyclopropoxy)-9H-purin-8-yl)phenoxy)ethyl)-2-azaspiro[3.3]heptan-6-ol], the IC50 with DLD-1 cells (setting [1]) was more than 10000 nM; with DLD-1 BRCA2−/− cells (setting [2]), 126 nM. In the case of `Cc1ccnc(Cn2c(-c3ccc(CN4CC(O)C4)cc3Cl)nc3c(OC4(C)CC4)ncnc32)c1` [Example T209, 1-(3-chloro-4-(6-(1-methylcyclopropoxy)-9-((4-methylpyridin-2-yl)methyl)-9H-purin-8-yl)benzyl)azetidin-3-ol], the IC50 is more than 10000 nM in the test with DLD-1 cells (setting [3]) and 631 nM in the test with DLD-1 BRCA2−/− cells (setting [4]). With `Cc1ccnc(Cn2c(-c3ccc(C(=O)N4CCCNCC4)cc3Cl)nc3c(OC4(C)CC4)ncnc32)c1` [Example T496, (3-chloro-4-(6-(1-methylcyclopropoxy)-9-((4-methylpyridin-2-yl)methyl)-9H-purin-8-yl)phenyl)(1,4-diazepan-1-yl)methanone], the IC50 with DLD-1 cells (setting [5]) and in the test on DLD-1 BRCA2−/− cells (setting [6]) was more than 10000 nM each time. Turning to `Cc1ccnc(Cn2c(-c3ccc(CN4CCC(O)CC4)cc3Cl)nc3c(OC4(C)CC4)ncnc32)c1` [Example T508, 1-(3-chloro-4-(6-(1-methylcyclopropoxy)-9-((4-methylpyridin-2-yl)methyl)-9H-purin-8-yl)benzyl)piperidin-4-ol], the IC50 was more than 10000 nM in the test on DLD-1 cells (setting [5]) and 316 nM with DLD-1 BRCA2−/− cells (setting [6]).

With `COc1ccc(F)cc1Cn1c(-c2cccc(OCCCOCC(=O)O)c2Cl)nc2c(OC3(C)CC3)ncnc21` [Example U71, 2-(3-(2-chloro-3-(9-(5-fluoro-2-methoxybenzyl)-6-(1-methylcyclopropoxy)-9H-purin-8-yl)phenoxy)propoxy)acetic acid], the IC50 in the test on DLD-1 cells (setting [7]) is more than 10000 nM. In the case of `CC1(Oc2ncnc3c2nc(-c2cccc(O[C@H]4CC[C@H](C(=O)O)CC4)c2Cl)n3Cc2cc(Cl)ccc2C#N)CC1` [Example U85, (1r,4r)-4-(2-chloro-3-(9-(5-chloro-2-cyanobenzyl)-6-(1-methylcyclopropoxy)-9H-purin-8-yl)phenoxy)cyclohexane-1-carboxylic acid], in the test with DLD-1 cells (DLD1 BRCA2 wt, mean), the “POLQ PD Prolif Lumin DLD1 mean pIC50” value is listed as less than 5.0.

For `CC1(Oc2ncnc3c2nc(-c2ccc(OCCN4CCNCC4)cc2Cl)n3CCc2ccccn2)CC1` [Example J11, 8-(2-chloro-4-(2-(piperazin-1-yl)ethoxy)phenyl)-6-(1-methylcyclopropoxy)-9-(2-(pyridin-2-yl)ethyl)-9H-purine], the IC50 in the test with DLD-1 cells (setting [1]) is more than 10000 nM.

Take `Cc1ccnc(Cn2c(-c3ccc(C4CCC(=O)N4)cc3Cl)nc3c(OC4(C)CC4)ncnc32)c1` (single isomer, unassigned) [Example T173, 5-(3-chloro-4-(6-(1-methylcyclopropoxy)-9-((4-methylpyridin-2-yl)methyl)-9H-purin-8-yl)phenyl)pyrrolidin-2-one]: the IC50 in the test on DLD-1 cells (setting [5]) was more than 10000 nM. For the compound `COc1ccc(F)cc1Cn1c(-c2cccc(OCC[C@@H](C)C(=O)O)c2Cl)nc2c(OC3(C)CC3)ncnc21` [Example U78, (R)-4-(2-chloro-3-(9-(5-fluoro-2-methoxybenzyl)-6-(1-methylcyclopropoxy)-9H-purin-8-yl)phenoxy)-2-methylbutanoic acid], the IC50 with DLD-1 cells (setting [7]) was more than 10000 nM. For the compound `COc1ccc(Cl)cc1Cn1c(-c2ccc(OCCCOC(C)(C)C(=O)O)cc2Cl)nc2c(OC3(C)CC3)ncnc21` [Example U92, 2-(3-(3-chloro-4-(9-(5-chloro-2-methoxybenzyl)-6-(1-methylcyclopropoxy)-9H-purin-8-yl)phenoxy)propoxy)-2-methylpropanoic acid], the IC50 with DLD-1 cells (setting [7]) is more than 10000 nM. Regarding `Cn1cnnc1Cn1c(-c2ccc(OCCN3CCNCC3)cc2Cl)nc2c(OC3(C)CC3)ncnc21` [Example T150, 8-(2-chloro-4-(2-(piperazin-1-yl)ethoxy)phenyl)-9-((4-methyl-4H-1,2,4-triazol-3-yl)methyl)-6-(1-methylcyclopropoxy)-9H-purine], in the test with DLD-1 cells (setting [5]), the IC50 is more than 10000 nM. On to `Cc1ccnc(Cn2c(-c3ccc(OC4CCCNCC4)cc3Cl)nc3c(OC4(C)CC4)ncnc32)c1` (single isomer, unassigned) [Example T509, 8-(4-(azepan-4-yloxy)-2-chlorophenyl)-6-(1-methylcyclopropoxy)-9-((4-methylpyridin-2-yl)methyl)-9H-purine], for which the IC50 in the test with DLD-1 cells (setting [5]) was more than 10000 nM. In the case of `Cc1cc(OC2CNC2)ncc1-c1nc2c(OC3(C)CC3)ncnc2n1Cc1ccccc1` [Example G17, 8-{6-[(azetidin-3-yl)oxy]-4-methylpyridin-3-yl}-9-benzyl-6-[(1-methylcyclopropyl)oxy]-9H-purine], the IC50 with DLD-1 cells (setting [1]) was 7940 nM. `CC(CCOc1ccc(-c2nc3c(OC4(C)CC4)ncnc3n2Cc2cccc(F)c2F)c(Cl)c1)C(=O)O` (single isomer, unassigned) [Example T261, 4-(3-chloro-4-(9-(2,3-difluorobenzyl)-6-(1-methylcyclopropoxy)-9H-purin-8-yl)phenoxy)-2-methylbutanoic acid]: the IC50 with DLD-1 BRCA2−/− cells (setting [4]) is 631 nM.

As to `Cc1ccnc(Cn2c(-c3ccc(OCC(F)CO)cc3Cl)nc3c(OC4(C)CC4)ncnc32)c1` (single isomer, unassigned) [Example T109, 3-(3-chloro-4-(6-(1-methylcyclopropoxy)-9-((4-methylpyridin-2-yl)methyl)-9H-purin-8-yl)phenoxy)-2-fluoropropan-1-ol], in the test with DLD-1 BRCA2−/− cells (setting [6]), the IC50 was 158 nM. As for `Cc1ccnc(Cn2c(-c3ccc(OCC(=O)N4CC[C@@H](CO)C4)cc3Cl)nc3c(OC4(C)CC4)ncnc32)c1` [Example T578, (R)-2-(3-chloro-4-(6-(1-methylcyclopropoxy)-9-((4-methylpyridin-2-yl)methyl)-9H-purin-8-yl)phenoxy)-1-(3-(hydroxymethyl)pyrrolidin-1-yl)ethan-1-one], the IC50 in the test on DLD-1 BRCA2−/− cells (DLD-1, first proliferation column, DLD-1 BRCA2-/-, read-out: POLQ PD Prolif Lumin (converted)) is 631 nM. Turning to `CC(CCOc1ccc(-c2nc3c(OC4(C)CC4)ncnc3n2Cc2cccc(Cl)c2F)c(Cl)c1)C(=O)O` (single isomer, unassigned) [Example T271, 4-(3-chloro-4-(9-(3-chloro-2-fluorobenzyl)-6-(1-methylcyclopropoxy)-9H-purin-8-yl)phenoxy)-2-methylbutanoic acid], the “POLQ PD Prolif Lumin” value in the test with DLD-1 BRCA2−/− cells (DLD-1 BRCA2-/- proliferation, column head only partly shown) came to 6.4.
